Measurements from ChEMBL document CHEMBL6087428, “Discovery of potent and selective factor XIa inhibitors incorporating triazole-based benzoic acid as novel P2' fragments: Molecular dynamics simulations and anticoagulant activity” (Eur J Med Chem, 2025).

Columns and labels:
[1] = molecular target: T1, Coagulation factor XI (Homo sapiens, UniProt P03951); test: Inhibition of human Factor XIa using Boc-Glu(OBzl)-Ala-Arg-AMC assessed as AMC release preincubated for 15 mins followed by substrate addition and measured after 10 mins by microplate fluorescence reader analysis
[2] = molecular target: T2, Plasma kallikrein (Homo sapiens, UniProt P03952); test: Inhibition of human PKa using H-Pro-Phe-Arg-AMC as substrate incubated for 15 mins by fluorescence reader analysis
[3] = tested on: Plasma; test: Anticoagulant activity in citrated human pooled plasma assessed as prolongation of prothrombin time incubated for 3 mins by PT reagent based semi-automated coagulometric analysis; format: functional; details: 0.05 h
[4] = molecular target: Trypsin (Homo sapiens, UniProt P07477+P07478+P35030); test: Inhibition of human trypsin using Boc-Ile-Glu-Gly-Arg-AMC as substrate incubated for 15 mins by fluorescence reader analysis; format: protein assay
[5] = molecular target: Coagulation factor X (Homo sapiens, UniProt P00742); test: Inhibition of human Factor Xa using Boc-Ile-Glu-Gly-Arg-AMC as substrate incubated for 15 mins by fluorescence reader analysis
[6] = tested on: Plasma; test: Anticoagulant activity in citrated human pooled plasma assessed as prolongation of activated partial thromboplastin time incubated for 5 mins by aPTT reagent based semi-automated coagulometric analysis; format: functional
[7] = species on record: Homo sapiens; test: Selectivity ratio of IC50 for human thrombin using Boc-Asp(OBzl)-Pro-Arg-AMC as substrate to IC50 for human Factor XIa using Boc-Glu(OBzl)-Ala-Arg-AMC
[8] = species on record: Homo sapiens; test: Selectivity ratio of IC50 for human trypsin using Boc-Ile-Glu-Gly-Arg-AMC as substrate to IC50 for human Factor XIa using Boc-Glu(OBzl)-Ala-Arg-AMC
[9] = molecular target: Prothrombin (Homo sapiens, UniProt P00734); test: Inhibition of human thrombin using Boc-Asp(OBzl)-Pro-Arg-AMC as substrate incubated for 15 mins by fluorescence reader analysis
[10] = species on record: Homo sapiens; test: Selectivity ratio of IC50 for human Factor Xa using Boc-Ile-Glu-Gly-Arg-AMC as substrate to IC50 for human Factor XIa using Boc-Glu(OBzl)-Ala-Arg-AMC
[11] = molecular target: T2, Plasma kallikrein; test: Inhibition of Pka (unknown origin)
[12] = molecular target: T1, Coagulation factor XI; test: Inhibition of Factor XIa (unknown origin)

T2 sequence (P03952 20-390 limits assumed): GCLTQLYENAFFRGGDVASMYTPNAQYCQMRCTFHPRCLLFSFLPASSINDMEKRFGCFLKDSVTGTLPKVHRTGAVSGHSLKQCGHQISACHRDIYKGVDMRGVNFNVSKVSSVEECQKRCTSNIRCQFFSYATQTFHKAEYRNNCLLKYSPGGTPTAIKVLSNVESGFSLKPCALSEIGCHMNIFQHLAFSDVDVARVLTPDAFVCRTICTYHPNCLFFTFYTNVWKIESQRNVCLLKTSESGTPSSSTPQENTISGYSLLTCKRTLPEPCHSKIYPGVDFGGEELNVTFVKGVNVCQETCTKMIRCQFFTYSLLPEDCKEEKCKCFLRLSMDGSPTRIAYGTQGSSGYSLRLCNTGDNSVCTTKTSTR
T2 sequence (P03952 391-638 limits assumed): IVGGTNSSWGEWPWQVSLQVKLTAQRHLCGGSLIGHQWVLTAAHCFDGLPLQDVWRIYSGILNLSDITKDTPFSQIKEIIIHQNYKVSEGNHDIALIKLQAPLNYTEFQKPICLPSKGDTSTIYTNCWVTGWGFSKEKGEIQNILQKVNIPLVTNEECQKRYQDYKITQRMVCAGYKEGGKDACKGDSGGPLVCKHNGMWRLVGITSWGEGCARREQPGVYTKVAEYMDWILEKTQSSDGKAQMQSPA
Coagulation factor X, sequence (P00742 41-179 limits assumed): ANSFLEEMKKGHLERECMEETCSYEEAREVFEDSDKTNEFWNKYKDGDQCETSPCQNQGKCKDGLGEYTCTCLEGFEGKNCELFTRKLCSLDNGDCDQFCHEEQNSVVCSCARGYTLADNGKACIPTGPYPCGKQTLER
Coagulation factor X, sequence (P00742 235-488 limits assumed): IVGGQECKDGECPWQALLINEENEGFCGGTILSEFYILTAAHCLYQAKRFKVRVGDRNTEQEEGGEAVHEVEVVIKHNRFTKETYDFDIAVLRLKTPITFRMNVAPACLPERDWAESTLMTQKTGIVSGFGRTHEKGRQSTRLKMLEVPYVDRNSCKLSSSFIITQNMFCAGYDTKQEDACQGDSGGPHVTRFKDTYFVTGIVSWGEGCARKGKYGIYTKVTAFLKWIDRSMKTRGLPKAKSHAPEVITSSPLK
T1 sequence (P03951 19-387 limits assumed): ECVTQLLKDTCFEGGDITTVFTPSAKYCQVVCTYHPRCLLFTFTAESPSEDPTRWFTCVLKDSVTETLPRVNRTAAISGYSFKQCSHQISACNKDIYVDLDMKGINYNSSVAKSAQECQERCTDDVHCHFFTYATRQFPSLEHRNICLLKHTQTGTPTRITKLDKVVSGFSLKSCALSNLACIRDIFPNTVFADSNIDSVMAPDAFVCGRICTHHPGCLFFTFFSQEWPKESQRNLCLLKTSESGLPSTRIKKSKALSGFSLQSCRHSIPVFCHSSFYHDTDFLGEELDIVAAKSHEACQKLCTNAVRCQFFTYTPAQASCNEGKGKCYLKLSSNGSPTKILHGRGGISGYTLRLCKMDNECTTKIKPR
T1 sequence (P03951 388-625 limits assumed): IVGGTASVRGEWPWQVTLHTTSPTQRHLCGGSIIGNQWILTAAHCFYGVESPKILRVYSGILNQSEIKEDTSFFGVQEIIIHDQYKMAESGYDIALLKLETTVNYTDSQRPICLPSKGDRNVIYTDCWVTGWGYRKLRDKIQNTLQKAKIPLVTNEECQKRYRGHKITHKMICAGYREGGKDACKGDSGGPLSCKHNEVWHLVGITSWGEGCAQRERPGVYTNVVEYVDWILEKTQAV

SMILES	IC50 [1] [nM]	IC50 [2] [nM]	further results
COc1cn(Cc2cn(-c3cn[nH]c3)nn2)c(=O)cc1-c1cc(Cl)ccc1-n1cc(Cl)nn1	186	2060	
COc1ccc(-n2cc(Cn3cc(OC)c(-c4cc(Cl)ccc4-n4cc(Cl)nn4)cc3=O)nn2)c(C)n1	917	15800	
CCC(c1cn(-c2ccc(C(=O)O)cc2)nn1)n1cc(OC)c(-c2cc(Cl)ccc2-n2cc(Cl)nn2)cc1=O (stereo unspecified)	84.5	655	EC2 [3]: >100 µM; IC50 [4]: 93100 nM; IC50 [5]: 17400 nM; EC1.5 [6]: 25.4 µM
COc1cn([C@@H](Cc2ccccc2)c2cn(-c3ccc(C(=O)O)cc3)nn2)c(=O)cc1-c1cc(Cl)ccc1-n1cc(C(F)(F)F)nn1	0.38	59.2	EC2 [3]: >100 µM; Ratio IC50 [7]: > 130000; Ratio IC50 [8]: > 10000; IC50 [4]: 16500 nM; IC50 [5]: 31600 nM; IC50 [9]: 51000 nM; EC1.5 [6]: 0.55 µM; Ratio IC50 [10]: > 80000
COC(=O)c1ccc(-n2cc(C(Cc3ccccc3)n3cc(OC)c(-c4cc(Cl)ccc4-n4cc(Cl)nn4)cc3=O)nn2)cc1 (stereo unspecified)	27	522	
COc1cn(Cc2cn(-c3ccc(C(=O)O)cc3)nn2)c(=O)cc1-c1cc(Cl)ccc1-n1cc(Cl)nn1	38.7	832	
COC(=O)c1ccc(-n2cc(Cn3cc(OC)c(-c4cc(Cl)ccc4-n4cc(Cl)nn4)cc3=O)nn2)cc1	161	1970	
CCC(c1cn(-c2cnn(C)c2)nn1)n1cnc(-c2cc(Cl)ccc2-n2cc(Cl)nn2)cc1=O (stereo unspecified)	14600	87200	
CCC(c1cn(-c2cnn(C(F)F)c2)nn1)n1cc(OC)c(-c2cc(Cl)ccc2-n2cc(Cl)nn2)cc1=O (stereo unspecified)	1330	8130	
COc1cn(Cc2cn(-c3cccnc3C)nn2)c(=O)cc1-c1cc(Cl)ccc1-n1cc(Cl)nn1	1240	14400	
COc1cn(C(Cc2ccccc2)c2cn(-c3ccc(C(=O)O)cc3)nn2)c(=O)cc1-c1cc(Cl)ccc1-n1cc(C(F)(F)F)nn1 (stereo unspecified)	1.31	112	EC2 [3]: >100 µM; IC50 [4]: 14200 nM; IC50 [5]: 41200 nM; IC50 [9]: 53700 nM; EC1.5 [6]: 0.81 µM
CCC(c1cn(-c2cccc(C(=O)OC)c2)nn1)n1cc(OC)c(-c2cc(Cl)ccc2-n2cc(Cl)nn2)cc1=O (stereo unspecified)	1600	2140	
CCC(c1cn(-c2cn[nH]c2)nn1)n1cnc(-c2cc(Cl)ccc2-n2cc(Cl)nn2)cc1=O (stereo unspecified)	6550	23400	
CCC(c1cn(-c2ccccc2)nn1)n1cc(OC)c(-c2cc(Cl)ccc2-n2cc(Cl)nn2)cc1=O (stereo unspecified)	535	2590	
COc1cn(Cc2cn(-c3ccccc3)nn2)c(=O)cc1-c1cc(Cl)ccc1-n1cc(Cl)nn1	78.1	766	
COc1cn(Cc2cn(-c3cnn(C)c3)nn2)c(=O)cc1-c1cc(Cl)ccc1-n1cc(Cl)nn1	288	3740	
CCC(c1cn(-c2ccccc2C(=O)O)nn1)n1cc(OC)c(-c2cc(Cl)ccc2-n2cc(Cl)nn2)cc1=O (stereo unspecified)	497	9800	
COc1cn(Cc2cn(-c3cc(Br)cnc3C#N)nn2)c(=O)cc1-c1cc(Cl)ccc1-n1cc(Cl)nn1	2000	14200	
CCC(c1cn(-c2cn[nH]c2)nn1)n1cc(OC)c(-c2cc(Cl)ccc2-n2cc(Cl)nn2)cc1=O (stereo unspecified)	379	2510	
CC[C@@H](C(=O)Nc1ccc(C(N)=O)c(F)c1)n1cc(OC)c(-c2cc(Cl)ccc2-n2cc(C(F)(F)F)nn2)cc1=O			EC2 [3]: >100 µM; IC50 [4]: 4050 nM; IC50 [5]: 7210 nM; IC50 [9]: 6270 nM; EC1.5 [6]: 0.71 µM
COc1cn(C(Cc2ccccc2)c2cn(-c3cn[nH]c3)nn2)c(=O)cc1-c1cc(Cl)ccc1-n1cc(C(F)(F)F)nn1 (stereo unspecified)	23.2	900	EC2 [3]: >100 µM; EC1.5 [6]: 1.57 µM
CCC(c1cn(-c2cnn(C)c2)nn1)n1cc(OC)c(-c2cc(Cl)ccc2-n2cc(Cl)nn2)cc1=O (stereo unspecified)	609	6520	
CCC(c1cn(-c2ccccc2C(=O)OC)nn1)n1cc(OC)c(-c2cc(Cl)ccc2-n2cc(Cl)nn2)cc1=O (stereo unspecified)	1960	4840	

SMILES	IC50 [1] [nM]	IC50 [2] [nM]	further results
CC[C@@H](c1cn(-c2ccc(C(=O)OC)cc2)nn1)n1cc(OC)c(-c2cc(Cl)ccc2-n2cc(Cl)nn2)cc1=O	32	643	EC2 [3]: >100 µM; IC50 [4]: 82900 nM; IC50 [5]: 4200 nM; IC50 [9]: 67700 nM; EC1.5 [6]: 13.2 µM
COC(=O)c1cccc(-n2cc(Cn3cc(OC)c(-c4cc(Cl)ccc4-n4cc(Cl)nn4)cc3=O)nn2)c1	519	1060	
COc1cn([C@H](Cc2ccccc2)c2cn(-c3ccc(C(=O)O)cc3)nn2)c(=O)cc1-c1cc(Cl)ccc1-n1cc(C(F)(F)F)nn1	102	2750	EC2 [3]: >100 µM; IC50 [4]: 88200 nM; IC50 [5]: > 33000 nM; IC50 [9]: > 33000 nM; EC1.5 [6]: 26.9 µM
COc1cn(Cc2cn(-c3ccccc3C(=O)O)nn2)c(=O)cc1-c1cc(Cl)ccc1-n1cc(Cl)nn1	272	11600	
CC[C@H](c1cn(-c2ccc(C(=O)OC)cc2)nn1)n1cc(OC)c(-c2cc(Cl)ccc2-n2cc(Cl)nn2)cc1=O	1100	7850	EC2 [3]: >100 µM; IC50 [4]: > 100000 nM; IC50 [5]: 101000 nM; EC1.5 [6]: 392 µM
COc1cn(Cc2cn(-c3ccc(Cl)nc3C#N)nn2)c(=O)cc1-c1cc(Cl)ccc1-n1cc(Cl)nn1	1090	15800	
COc1cn(Cc2cn(-c3cccnc3C(=O)O)nn2)c(=O)cc1-c1cc(Cl)ccc1-n1cc(Cl)nn1	379	6800	
COc1cn(C(Cc2ccccc2)c2cn(-c3ccccc3)nn2)c(=O)cc1-c1cc(Cl)ccc1-n1cc(Cl)nn1 (stereo unspecified)	30.9	501	
COc1cn([C@H](Cc2ccccc2)c2cn(-c3ccc(C(=O)O)cc3)nn2)c(=O)cc1-c1cc(Cl)ccc1-n1cc(Cl)nn1	96.3	1870	EC2 [3]: >100 µM; IC50 [4]: > 100000 nM; IC50 [5]: > 100000 nM; IC50 [9]: 46900 nM; EC1.5 [6]: 29 µM
COc1cn(Cc2cn(-c3cccc(C(=O)O)c3)nn2)c(=O)cc1-c1cc(Cl)ccc1-n1cc(Cl)nn1	78.7	412	
CCC(c1cn(-c2ccc(C(=O)OC)cc2)nn1)n1cc(OC)c(-c2cc(Cl)ccc2-n2cc(Cl)nn2)cc1=O (stereo unspecified)	373	1490	
COc1cn(C(Cc2ccccc2)c2cn(-c3ccc(C(=O)O)cc3)nn2)c(=O)cc1-c1cc(Cl)ccc1-n1cc(Cl)nn1 (stereo unspecified)	2.26	141	EC2 [3]: >100 µM; IC50 [4]: 26100 nM; IC50 [5]: 48200 nM; IC50 [9]: 42000 nM; EC1.5 [6]: 1.41 µM
CCC(c1ccc2cc(C(=O)O)ccc2c1)n1cc(OC)c(-c2cc(Cl)ccc2-n2cc(C(F)(F)F)nn2)cc1=O (stereo unspecified)			IC50 [11]: 258 nM; IC50 [12]: 86.6 nM
CCC(c1cn(-c2ccccc2)nn1)n1cnc(-c2cc(Cl)ccc2-n2cc(Cl)nn2)cc1=O (stereo unspecified)	6340	47200	
COc1cn([C@@H](Cc2ccccc2)c2cn(-c3ccc(C(=O)O)cc3)nn2)c(=O)cc1-c1cc(Cl)ccc1-n1cc(Cl)nn1	1.52	73.1	EC2 [3]: >100 µM; Ratio IC50 [7]: > 16000; Ratio IC50 [8]: > 9000; IC50 [4]: 14100 nM; IC50 [5]: 46800 nM; IC50 [9]: 24400 nM; EC1.5 [6]: 0.75 µM; Ratio IC50 [10]: > 30000
COC(=O)c1ncccc1-n1cc(Cn2cc(OC)c(-c3cc(Cl)ccc3-n3cc(Cl)nn3)cc2=O)nn1	2000	19700	
COC(=O)c1ccc(-n2cc(C(Cc3ccccc3)n3cc(OC)c(-c4cc(Cl)ccc4-n4cc(C(F)(F)F)nn4)cc3=O)nn2)cc1 (stereo unspecified)	38.3	643	
CCC(c1cn(-c2cccc(C(=O)O)c2)nn1)n1cc(OC)c(-c2cc(Cl)ccc2-n2cc(Cl)nn2)cc1=O (stereo unspecified)	259	822	
COc1cn(Cc2cn(-c3ccc(Cl)nc3C)nn2)c(=O)cc1-c1cc(Cl)ccc1-n1cc(Cl)nn1	1020	11100	
COc1cn(C(Cc2ccccc2)c2cn(-c3ccccc3)nn2)c(=O)cc1-c1cc(Cl)ccc1-n1cc(C(F)(F)F)nn1 (stereo unspecified)	30.9	746	
COC(=O)c1ccccc1-n1cc(Cn2cc(OC)c(-c3cc(Cl)ccc3-n3cc(Cl)nn3)cc2=O)nn1	1660	11500	
COc1cn(C(Cc2ccccc2)c2cn(-c3cn[nH]c3)nn2)c(=O)cc1-c1cc(Cl)ccc1-n1cc(Cl)nn1 (stereo unspecified)	21.4	683	EC2 [3]: >100 µM; EC1.5 [6]: 2.64 µM
